{"source": "patent US20220288014A1", "about": "“ORAL FORMULATIONS OF CANNABIS EXTRACTS AND METHODS OF MAKING SAME” (Neptune Wellness Solutions Inc., priority 2019, published 2022)", "key": {"[1]": {"assay": "Example 2: rat pharmacokinetics of CBD and THC from cannabis extract (1:1 THC:CBD), IV bolus and oral gavage in MCT, TG-O3 or krill oil (PL-O3)", "assay_type": "in vivo", "details": "intravenous administration of cannabis extract in lipid-free solution, at 5 minutes (data not shown)", "description": "The study design and methods of analyses of the pre-clinical study were the same as disclosed in Example 1.\nValues are expressed as mean±SEM."}, "[2]": {"assay": "Example 1: rat pharmacokinetics of CBD and THC from cannabis extract (1:1 THC:CBD), IV bolus and oral gavage in MCT, TG-O3 or MAG-O3 carrier oil", "details": "intravenous administration of cannabis extract in lipid-free solution, at 5 minutes (data not shown)"}}, "data": [{"smiles": "C=C(C)[C@@H]1CCC(C)=C[C@H]1c1c(O)cc(CCCCC)cc1O", "note": "[CBD, cannabidiol]", "values": [{"measurement": "peak plasma concentration", "setting": "[1]", "value": "1193 ± 290", "unit": "ng/mL"}, {"measurement": "peak plasma concentration", "setting": "[2]", "value": "1193 ± 290", "unit": "ng/mL"}]}, {"smiles": "CCCCCc1cc(O)c2c(c1)OC(C)(C)[C@@H]1CCC(C)=C[C@@H]21", "note": "[THC, Δ^9tetrahydrocannabinol]", "values": [{"measurement": "peak plasma concentration", "setting": "[1]", "value": "864 ± 194", "unit": "ng/mL"}, {"measurement": "peak plasma concentration", "setting": "[2]", "value": "864 ± 194", "unit": "ng/mL"}]}]}
